These results are taken from ChEMBL document CHEMBL3507680, “University of Dundee, Gates Library screen for HepG2 cell viability”.

The series is described as follows: Human HepG2 cell viability assay in 384 well format. Particulars: HepG2 cells, read-out: Inhibition. It counts as toxicity, cell-based. Also on record: dose 125 nL, time 70.5 hour; cytotoxicity at 70.5 h: concentration not given beside the values.
For `Cc1cnc(C(=O)N2CC[C@H]3C[C@@H](c4nc(C)cs4)O[C@@H]3C2)cn1`, the cytotoxicity at 70.5 h came out at 7.61%.

Turning to `Cc1cccc2c(CCNS(=O)(=O)C3CCOC3)c[nH]c12` (centres undefined), the cytotoxicity at 70.5 h was 12.8%.

For `COc1cc(CNC(=O)c2cc(Cl)ccc2F)ccn1`, the cytotoxicity at 70.5 h was -5.8%. Take `CCC(NC(=O)c1ccoc1)c1ccccc1OCC(=O)N1CCCC1` (centres undefined): the cytotoxicity at 70.5 h is -3.93%.

Turning to `Cc1ccc(C(O)CNC(=O)c2cccnc2O)cc1` (centres undefined), the cytotoxicity at 70.5 h was -12.1%. Next, `Cc1ccc(CN2C[C@@H]3COC[C@]3(COc3ccc(C#N)cn3)C2)o1`: 7.17%. The figure for `COc1ncccc1CNC(=O)c1c(C)oc(C)c1C` is -8.16%; for `CN(CCCOc1ccccc1)C(=O)CN1CCc2cncnc2C1` it is 8.28%; for `Cc1n[nH]cc1CNCC(c1ccsc1)N(C)C` (centres undefined) it is -7.79%.

Take `COCC1c2c(cnn2C)CCN1Cc1ccoc1` (centres undefined): the cytotoxicity at 70.5 h is -3.89%. The figure for `COC(=O)c1cccc(S(=O)(=O)NC(=O)COC2CCCCC2)c1` is -3.15%; for `Cc1c(I)cccc1C(=O)NCc1ncc[nH]1` it is -0.0896%. Next, `CN(C)[C@@H]1CCN(C(=O)CC2CC2)[C@H]1Cc1cnn(C)c1`: -7.51%; `Cc1cc(-c2cnc(N3CCCC3)nc2-c2ccc(C)s2)on1`: -6.38%. The figure for `CCc1csc(C2CCCN(C(=O)c3ccc(OC)nc3)C2)n1` (centres undefined) is -1.94%. `O=C(c1ccc2[nH]cnc2c1)N1CCCC1Cn1cccn1` (centres undefined): the cytotoxicity at 70.5 h was -8.04%.

Take `Cc1cc(CN2CC[C@H]3C[C@@H](c4nccs4)O[C@@H]3C2)no1`: the cytotoxicity at 70.5 h is -2.76%. With `CC(C)C(=O)N1CCCC(c2cc(C(F)F)n3ncnc3n2)C1` (centres undefined), the cytotoxicity at 70.5 h turned out to be 23.9%. Next, `O=C(Nc1ccc(CC(=O)N2CCSCC2)cc1)NC1CCCC1`: -4.2%.

Regarding `CC(=O)NCc1noc2c1CN(Cc1cnn(C)c1)CC2`, the cytotoxicity at 70.5 h was determined as 2.69%. Next, `COc1c(CNCc2cnn(C)c2)c(C(C)C)nn1C`: 7.69%.

Consider `Cc1ncc2c(n1)CN(Cc1nc(C)c(C)o1)CC2`, for which the cytotoxicity at 70.5 h is -100%.

Take `CCC(C)NC(=O)CCn1ccc(C)n1` (centres undefined): the cytotoxicity at 70.5 h was -6.22%. `CCN(CC)C(=O)Nc1ccc(N2CCSCC2)cc1C`: the cytotoxicity at 70.5 h was determined as 8.14%. Next, `Cc1[nH]c(=O)sc1S(=O)(=O)N1CCCC1C(=O)NC1CC1` (centres undefined): -6.92%; `N[C@@H]1c2ccccc2C2(CCN(c3ccc(C(F)(F)F)cn3)CC2)[C@H]1O`: -15.9%. Next, `COc1ccccc1N1CCN(C(=O)CCn2ccnc2C)CC1(C)C`: 21.5%; `CN1CCC(N2CCN3C(=O)NC[C@H]3C2)CC1`: -3.25%. The figure for `O=C(CC1CCCO1)NCCc1ccccc1Br` (centres undefined) is -2.65%. As for `Cc1nc(C)n(CC2CCCN(CC(=O)NC3CCOCC3)C2)n1` (centres undefined), the cytotoxicity at 70.5 h is 3.14%.

Consider `O=C(NCC(F)(F)C(F)F)c1cccnc1`, for which the cytotoxicity at 70.5 h was -3.25%. Next, `O=C(CC1CCCO1)NCc1ccccc1Cn1cncn1` (centres undefined): -3.75%; `Oc1cccc(CNCC2CCCO2)c1` (centres undefined): 10.4%; `CN1CCCC(Cc2nccnc2Cl)CC1` (centres undefined): -3.4%. Next, `O=C(CN1CCN(C(=O)c2ccccc2)CC1)Nc1ncc(Br)cc1Br`: -1.02%; `Cc1cc(-c2cccc(C(=O)O)c2)nc(C2CCN(C(C)C)CC2)n1`: -3.8%; `O=C(c1ccnnc1)N1C[C@@H](OCc2cccnc2)[C@H]2OCCC[C@H]21`: 27.3%.

As for `CN(Cc1cccnc1)C1CC2(CCN(Cc3cccnc3)CC2)C1`, the cytotoxicity at 70.5 h was -13.8%. Next, `Cc1cc(C)n(C2CN(CCC(N)=O)C2)n1`: 0.833%.

With `COc1ccc(C(=O)N2CCOC(Cc3cccc(C(F)(F)F)c3)C2)o1` (centres undefined), the cytotoxicity at 70.5 h was -7.8%.

Consider `c1cc(-c2ccc3c(c2)C2(CCNCC2)CC3)ccn1`, for which the cytotoxicity at 70.5 h turned out to be 50.6%. The figure for `COC(=O)CN(Cc1ccccc1C)C(=O)C1CCC1` is 8.03%. Next, `COC(=O)N1C[C@H]2CC[C@@H]1CN(Cc1ccncc1)C2`: -14.2%; `Cc1nnc2n1CCN(Cc1csc(-c3cnn(C)c3)n1)C2`: -3.97%. The figure for `CC(=O)Nc1ccc(-c2ccccc2CCN)cc1` is -4.46%; for `CC(c1nc(C2CC2)no1)N1CCc2c(ncn2C)C1` (centres undefined) it is 0.478%. In the case of `CC(=O)N1CCCC2(CN(Cc3ccccc3C(F)(F)F)CCO2)C1` (centres undefined), the cytotoxicity at 70.5 h was -2.98%.

As to `Cc1nnc2n1CCN(C(=O)c1cc(C)n(-c3ccccn3)c1C)C2`, the cytotoxicity at 70.5 h is -14%. The figure for `CN1CCN(C(=O)[C@H]2C[C@@H]3CCN(c4ncc(F)cn4)C[C@@H]3O2)CC1` is -13.1%; for `COCCCN1CCC(CNc2nccc(-c3cnn(C)c3)n2)C1` (centres undefined) it is -6.55%; for `CC(=O)N1CCN(Cn2nc(-c3ccc(F)cc3)oc2=O)CC1` it is -8.85%. Regarding `Nc1cc2c(nn1)CCN(C(=O)c1csc(-c3ccccc3)n1)C2`, the cytotoxicity at 70.5 h is -1.92%. Next, `O=C(NCCC1=CCCCC1)c1[nH]nc2c1CCCC2`: 11.2%; `CCCn1nc(C(=O)NCCc2nnc3n2CCC3)ccc1=O`: 1.09%. Next, `Fc1ccc(CN2CC[C@H]3O[C@@H](COCC4CCOCC4)CC[C@H]32)cc1`: 18.1%; `CNC(=O)Cc1ccc(NC(=O)NCc2ncc(C)s2)cc1`: 8.85%.

For `Cn1ccc(C(=O)NC2CCC23CCN(C(=O)c2cnccn2)CC3)c1` (centres undefined), the cytotoxicity at 70.5 h is -7.61%.

`CC(C(=O)NCc1ccc(N2CCCCCC2)nc1)n1cncn1` (centres undefined): the cytotoxicity at 70.5 h is 3.18%. The figure for `Cn1ccnc1CN1CCN(CC(O)c2ccccc2)CC1` (centres undefined) is -12.2%. Next, `CCc1nc(C2CCCN(C(=O)NC(C)C)C2)no1` (centres undefined): 21.2%.

For `COc1cc(-c2cc(N)ncn2)cc(OC)c1OC`, the cytotoxicity at 70.5 h is -6.28%.

`O=C(O)c1c(Cl)ncn1-c1cccc2ccccc12`: the cytotoxicity at 70.5 h was -4.51%. Next, `O=C(c1ccncc1)N1C[C@@H](OCc2cccnc2)[C@H]2OCCC[C@H]21`: -10.2%. The figure for `CN(C)CCN1CCCC12CCN(C(=O)c1ccoc1)CC2` is -9.15%; for `O=C(Nc1ccc(F)c(-n2cccc2)c1)NC1(CCO)CCOCC1` it is -10.8%; for `CN(C(=O)c1cn(C)cn1)[C@@H]1CCC[C@@H](Oc2ccccc2)[C@@H]1O` it is -2.57%.

For the molecule `Cn1ccnc1CN1CCN(CC(O)c2cccc(F)c2)CC1` (centres undefined), the cytotoxicity at 70.5 h was -12.2%. Next, `O=C(NCC1CC1)c1nnc2ccc(Cl)cc2n1`: -13.3%. For the molecule `O=C(CS(=O)(=O)C1CCCC1)NC(c1ccc(F)cc1)C1CC1` (centres undefined), the cytotoxicity at 70.5 h was 1.6%. The figure for `NC1CCCCN(Cc2cc(C3CCCCC3)no2)C1` (centres undefined) is -7.91%. The figure for `CN(Cc1cccc(-n2cccn2)c1)c1cc(N2CCCC2)nc(N)n1` is -16.8%. The figure for `CC(=O)c1cn(CC(=O)N2CCC(O)(CO)CC2)c2ccccc12` is -0.902%.

`CCOC(=O)CNC(=O)N1CCOC(Cc2ccc(OC)cc2)C1` (centres undefined): the cytotoxicity at 70.5 h was -0.738%.

For the molecule `CCC(NC(=O)Nc1cc(F)c(OC)c(F)c1)c1noc(C)n1` (centres undefined), the cytotoxicity at 70.5 h is 0.154%.

For `Cc1cc(C2CCCN2C(=O)Cn2c(C)cc(=O)c3ccccc32)on1` (centres undefined), the cytotoxicity at 70.5 h was -6.42%. Regarding `CN1CCn2c(-c3cccc(F)c3)cnc2C12CCN(CC1CC1)CC2`, the cytotoxicity at 70.5 h is 4.4%. Next, `Cc1ccccc1C(=O)N1CCN(c2ccc(-n3cncn3)nn2)CC1`: -4.18%; `CCCc1cc(CNC2CCN(c3cc(C)nc(N)n3)CC2)on1`: -5.61%; `CC1COCCN1Cc1noc(C(C)(C)C)n1` (centres undefined): 19.8%. Next, `O=C(NCc1ccco1)[C@H]1C[C@H]2OCC[C@H]2N(S(=O)(=O)C2CC2)C1`: -12.2%; `Cc1cccc(CN2C[C@@H](CN3CCCN(C)CC3)C[C@H](CO)C2)n1`: -5.2%. Consider `CN(CCO)C[C@@H]1CN(Cc2ccccc2-c2ccccc2)C[C@@H]1CO`, for which the cytotoxicity at 70.5 h was -2.36%. As for `CNS(=O)(=O)CC(=O)NC(C)Cc1ccc(Br)cc1` (centres undefined), the cytotoxicity at 70.5 h worked out at 2.68%. Next, `CCCc1nc(C)c(C(=O)Nc2cccc(C)n2)s1`: 23.8%; `c1cnnc(NCC2CN(Cc3cccc4c3OCCO4)CCO2)c1` (centres undefined): -20.6%. Next, `CNC(=O)[C@H]1C[C@@H]2CN(c3cc(OC)ncn3)C[C@@H]2N1C(C)C`: 15.2%. With `O=C(c1ccc(Cl)s1)N1CCCn2nc(CN3CC[C@H](F)C3)cc2C1`, the cytotoxicity at 70.5 h is -10.2%.

For the molecule `Cc1nc2cc(CNC(=O)C3CC(=O)N(C4CCCC4)C3)ccc2n1C` (centres undefined), the cytotoxicity at 70.5 h was -7.58%. The figure for `CC(C)N1CCc2c(C(=O)N3CCOCC3)nn(C)c2C1` is 0.371%.

In the case of `Cc1cc2nc(C(C)C)cc(NCCc3cccn3C)n2n1`, the cytotoxicity at 70.5 h is -8.08%. Next, `OC(COc1ccc(F)cc1)CN1CCC(c2ccn[nH]2)CC1` (centres undefined): -9.19%; `CC(NC(=O)c1cc(-c2cccc(Cl)c2)no1)C(=O)N(C)C` (centres undefined): -17.3%; `Cc1cc(=O)n2ncnc2n1CC(O)c1ccccc1` (centres undefined): -17.2%.

On to `O=C(Cc1ccccc1F)N1C[C@@H]2COC[C@]2(COc2cccnc2)C1`, for which the cytotoxicity at 70.5 h was -11.5%. The figure for `CN(CCCc1cnn(C)c1)c1nccc(-c2cc(C(=O)O)ccn2)n1` is -5.12%; for `COCCNC(=O)Cn1cc(OCc2ccccc2F)c(=O)cc1CO` it is 45.6%; for `Cc1nc(Nc2ncccn2)cc(C2CCCN2C)n1` (centres undefined) it is -7.58%.

Turning to `N#Cc1cc(F)ccc1NCc1ccc(Cn2cncn2)cc1`, the cytotoxicity at 70.5 h is -3.41%. The figure for `OC(CNCCc1nnc2ccccn12)c1ccc(F)c(F)c1` (centres undefined) is -6.79%.
